Where “and” joins values, the source holds several entries; their conditions need not be identical. Identical values can stand only once.
Key:
Assay type in all cases: physicochemical
[1] = Light absorption spectrum of coloring materials
Procedure: Next, the multiple fluorescent coloring materials will be described more specifically with reference to multiple fluorescence examples and reference examples. Here, measurement values obtained with purified water diluted solutions of coloring materials were used for an absorption wavelength region, a maximum absorption wavelength region, and a fluorescence wavelength region. Using an absorption spectrometer, absorption wavelengths were measured. A diluted solution was prepared in such a manner that the absorbance thereof was in the range of 0.5 to 0.7. A higher region from a base line as the absorption peak of the coloring material was defined as an absorption wavelength region, and the peak value was defined as a maximum absorption wavelength. In addition, for fluorescence wavelengths, the measurement conditions were set so that the fluorescence intensities were not beyond the measurement threshold value. Then, fluorescence wavelengths were measured by using the diluted solution used in the measurement of absorbance and by fixing the excitation wavelengths of the first and second coloring materials at predetermined wavelengths. A region higher than the base line was defined as a fluorescent emission wavelength region.
The absorption wavelength regions of the first and second coloring materials were measured using a spectrophotometer U-3200 (trade name; manufactured by Hitachi Ltd.) after the dye had been diluted 100,000-fold with purified water. The absorption wavelength region of the first coloring material ranged from 450 to 620 nm, and the maximum absorption wavelength thereof was 565 nm. In addition, the absorption wavelength region of the second coloring material ranged from 300 to 450 nm, and the maximum absorption wavelength thereof was 372 nm.

[2] = Fluorescent emission and excitation spectra of evaporated ink (FP-750); conditions: standard excitation wavelength 254 nm
Procedure: At first, a predetermined amount (in this case, 0.3% by mass with respect to the solution) of C.I. Acid Red 52 (AR52) as the first fluorescent coloring material was dissolved into an aqueous solution (an organic solvent such as glycerin and purified water), followed by heating at 60° C. to completely vaporize water content, resulting in ink (hereinafter, referred to as evaporated ink).
The fluorescent emission spectra and excitation spectra of the first and second fluorescent coloring materials were measured using a fluorometer FP-750 (trade name; manufactured by JASCO Corporation). Each measurement sample was an ink from which water content was evaporated to remove the influence of water on the measurement.

[3] = Fluorescent coloring material content causing concentration quenching; conditions: image printed on a recording material
Procedure: The following respective components as ink composition to be used were mixed and sufficiently stirred, and the resultant was dissolved and/or dispersed. After that, the resultant was filtered through a Phloropore filter (trade name; manufactured by Sumitomo Electric Industries, Ltd.) having a pore size of 0.1 μm under pressure to prepare each ink. An ink 1, an ink 2, an ink 3, and an ink 5 were defined as inks of Examples and an ink 4 was defined as Reference Example. The content of each fluorescent coloring material in ink for causing the concentration quenching of a fluorescent image printed on a recording material is 0.3% by mass or more for C.I. Acid Red 52, 2.0% by mass or more for C.I. Acid Red 92, or more than 2.0% by mass for the compound (A).
In each of the above ink compositions, the fluorescence intensity of each of the inks 1 to 4 was measured by means of a commercially available fluorescence measuring device […] (trade name; manufactured by JASCO Corporation).

Row | Structure (SMILES) | absorption peak wavelength ([1]; from FIGS. 5, 6, 12) [nm] | absorption spectrum range, visible light ([1]; from FIGS. 5, 6, 12) [nm] | fluorescent emission peak wavelength [2] [nm] | content of fluorescent coloring material in ink causing concentration quenching of a printed fluorescent image [3] [% by mass] | maximum absorption wavelength ([1]; dye diluted 100,000-fold with purified water, spectrophotometer U-3200) [nm] | absorption peak wavelength ([1]; from FIGS. 5, 6, 12, listed as AR52)
1 | O=C([O-])c1ccccc1-c1c2ccc(=O)cc-2oc2cc([O-])ccc12.[Na+].[Na+] [C.I. Acid Yellow 73, reference compound] | 490 | ≤ 525 | 530 |  |  | 
2 | CCN(CC)c1ccc2c(-c3ccc(S(=O)(=O)[O-])cc3S(=O)(=O)[O-])c3ccc(=[N+](CC)CC)cc-3oc2c1.[Na+] [C.I. Acid Red 52] |  |  | 600 | ≥ 0.3 | 565 | 565 nm and ~560 nm
3 | O=C([O-])c1c(Cl)c(Cl)c(Cl)c(Cl)c1-c1c2cc(Br)c(=O)c(Br)c-2oc2c(Br)c([O-])c(Br)cc12.[Na+].[Na+] [C.I. Acid Red 92] |  |  |  | ≥ 2.0 |  | 
